Experimental data published in patent publication EP4678638A1, “NEW E3 UBIQUITIN LIGASE LIGAND, PROTEIN DEGRADATION AGENT AND USE THEREOF” (priority 2023, dated 2024).

Assays:
[1] = system: H2228; assay: CCK-8 proliferation, NCI-H2228 (H2228); format: cell-based; conditions: Homo sapiens, NCI-H2228; Table B6, compounds designed based on the ALK inhibitors; H2228 cells; read-out: Inhibitory activity (IC50, nM) on tumor cell proliferation, H2228
Outline: (§1)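 CCK-8 viability readout; IC50 from growth-inhibition curve fitting. Cells plated, dosed 24h later with a 10-point series, top 10µM, 5-fold steps. Culture at 37°C, 5% CO2.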

[2] = system: MCF7; assay: CCK-8 proliferation, MCF7 (MCF-7); format: cell-based; conditions: Homo sapiens, MCF7; Table B6, compounds designed based on the ALK inhibitors; MCF-7 cells; read-out: Inhibitory activity (IC50, nM) on tumor cell proliferation, MCF-7
Outline: as §1

[3] = system: SR; assay: CCK-8 proliferation, SR; format: cell-based, Human; conditions: Homo sapiens; Table B6, compounds designed based on the ALK inhibitors; SR cells; read-out: Inhibitory activity (IC50, nM) on tumor cell proliferation, SR
Outline: as §1

[4] = biological target: T1, ALK (Homo sapiens, UniProt Q96SW2+Q9HC35+Q9UM73); assay: Western blot degradation of ALK (H2228 Cell); format: cell-based; conditions: Table D5
T1 construct: evaluate the effects of the compounds of the present disclosure on the expression of target proteins in cells; endogenous in cells; host or cells: H2228
Experimental: Conventional Western blot assay was performed to evaluate the effects of the compounds of the present disclosure on the expression of target proteins in cells.
(1) Cell Seeding and Protein Harvesting: The selected cells were processed according to the cell seeding procedure and protein harvesting procedure in Table III-2. Table III-2 Cell Seeding and Protein Harvesting Procedures
(2) To the collected supernatant, 5X SDS sample loading buffer was added, followed by denaturation at 95°C for 5 minutes. The denatured samples were then separated by SDS-PAGE electrophoresis on a polyacrylamide gel. Proteins were transferred to a nitrocellulose membrane (0.45 µm NC membrane), blocked with blocking buffer at room temperature for 1 hour, and subjected to antibody incubation and development procedures according to the antibody manufacturer's instructions (Cell Signaling Technology).
Half-Maximal Degradation Concentration value (the drug concentration required for degrading proteins by 50%, abbreviated as DC50) reads method: comparing the grayscale values of Western blot bands from drug-treated samples with those from blank DMSO-treated controls, and identifying the drug concentration range at which the grayscale value is half that of the DMSO-treated control bands.
DC50 values can be calculated using ImageJ software to measure grayscale values of Western blot bands from drug-treated samples. The concentration-response curve is fitted to estimate the drug concentration corresponding to half the grayscale value.
Target protein remaining (%) refers to the percentage of target protein remaining in hPBMC cells after treatment with protein degrader compounds.
Calculation method for target protein remaining (%): Use ImageJ software to measure grayscale values of Western blot bands from drug (protein degrader)-treated samples. The grayscale value of drug-treated bands is divided by that of internal control protein bands, and the resulting quotient is normalized to obtain the relative percentage of remaining target protein after protein degrader treatment.
Target protein degradation rate (%) = 100% - target protein remaining (%).

[5] = system: H1975; assay: CCK-8 proliferation, NCI-H1975 (H1975); format: cell-based, Human; conditions: Homo sapiens, NCI-H1975; Table B6, compounds designed based on the ALK inhibitors; H1975 cells; read-out: Inhibitory activity (IC50, nM) on tumor cell proliferation, H1975
Outline: as §1

T1 sequence (Q9HC35+Q9UM73 fused): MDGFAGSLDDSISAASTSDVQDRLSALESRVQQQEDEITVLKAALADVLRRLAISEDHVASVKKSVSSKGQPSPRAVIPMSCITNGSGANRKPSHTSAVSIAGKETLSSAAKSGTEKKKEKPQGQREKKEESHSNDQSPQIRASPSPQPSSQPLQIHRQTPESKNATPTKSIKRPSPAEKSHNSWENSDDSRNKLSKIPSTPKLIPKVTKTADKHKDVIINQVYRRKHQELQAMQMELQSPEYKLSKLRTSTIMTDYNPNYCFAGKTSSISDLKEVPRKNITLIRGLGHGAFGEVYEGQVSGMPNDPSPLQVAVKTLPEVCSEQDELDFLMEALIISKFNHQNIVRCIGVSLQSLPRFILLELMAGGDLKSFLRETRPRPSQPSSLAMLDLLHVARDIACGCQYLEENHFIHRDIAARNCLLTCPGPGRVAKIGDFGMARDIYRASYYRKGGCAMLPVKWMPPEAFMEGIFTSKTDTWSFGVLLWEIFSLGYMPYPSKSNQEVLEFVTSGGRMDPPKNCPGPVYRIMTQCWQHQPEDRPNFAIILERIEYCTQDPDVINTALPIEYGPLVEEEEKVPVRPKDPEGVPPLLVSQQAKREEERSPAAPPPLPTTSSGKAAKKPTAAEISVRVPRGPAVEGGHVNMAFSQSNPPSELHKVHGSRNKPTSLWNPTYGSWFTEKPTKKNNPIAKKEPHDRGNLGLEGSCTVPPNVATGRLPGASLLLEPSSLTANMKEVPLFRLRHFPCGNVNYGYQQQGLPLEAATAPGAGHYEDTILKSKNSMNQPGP
T1 sequence (Q96SW2 whole entry): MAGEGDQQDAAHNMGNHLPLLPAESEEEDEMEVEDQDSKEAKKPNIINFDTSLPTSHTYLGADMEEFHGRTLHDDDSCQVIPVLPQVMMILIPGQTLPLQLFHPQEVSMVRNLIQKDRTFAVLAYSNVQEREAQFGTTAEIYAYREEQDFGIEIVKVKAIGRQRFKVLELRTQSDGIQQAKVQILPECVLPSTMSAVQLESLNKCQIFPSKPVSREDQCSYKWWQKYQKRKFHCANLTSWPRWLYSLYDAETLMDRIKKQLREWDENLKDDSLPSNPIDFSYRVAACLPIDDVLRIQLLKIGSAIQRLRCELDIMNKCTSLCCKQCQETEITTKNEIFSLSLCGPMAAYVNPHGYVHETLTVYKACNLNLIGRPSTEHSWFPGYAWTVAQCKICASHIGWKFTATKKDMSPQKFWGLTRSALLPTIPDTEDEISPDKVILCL
T1 sequence (Q16531 whole entry partner): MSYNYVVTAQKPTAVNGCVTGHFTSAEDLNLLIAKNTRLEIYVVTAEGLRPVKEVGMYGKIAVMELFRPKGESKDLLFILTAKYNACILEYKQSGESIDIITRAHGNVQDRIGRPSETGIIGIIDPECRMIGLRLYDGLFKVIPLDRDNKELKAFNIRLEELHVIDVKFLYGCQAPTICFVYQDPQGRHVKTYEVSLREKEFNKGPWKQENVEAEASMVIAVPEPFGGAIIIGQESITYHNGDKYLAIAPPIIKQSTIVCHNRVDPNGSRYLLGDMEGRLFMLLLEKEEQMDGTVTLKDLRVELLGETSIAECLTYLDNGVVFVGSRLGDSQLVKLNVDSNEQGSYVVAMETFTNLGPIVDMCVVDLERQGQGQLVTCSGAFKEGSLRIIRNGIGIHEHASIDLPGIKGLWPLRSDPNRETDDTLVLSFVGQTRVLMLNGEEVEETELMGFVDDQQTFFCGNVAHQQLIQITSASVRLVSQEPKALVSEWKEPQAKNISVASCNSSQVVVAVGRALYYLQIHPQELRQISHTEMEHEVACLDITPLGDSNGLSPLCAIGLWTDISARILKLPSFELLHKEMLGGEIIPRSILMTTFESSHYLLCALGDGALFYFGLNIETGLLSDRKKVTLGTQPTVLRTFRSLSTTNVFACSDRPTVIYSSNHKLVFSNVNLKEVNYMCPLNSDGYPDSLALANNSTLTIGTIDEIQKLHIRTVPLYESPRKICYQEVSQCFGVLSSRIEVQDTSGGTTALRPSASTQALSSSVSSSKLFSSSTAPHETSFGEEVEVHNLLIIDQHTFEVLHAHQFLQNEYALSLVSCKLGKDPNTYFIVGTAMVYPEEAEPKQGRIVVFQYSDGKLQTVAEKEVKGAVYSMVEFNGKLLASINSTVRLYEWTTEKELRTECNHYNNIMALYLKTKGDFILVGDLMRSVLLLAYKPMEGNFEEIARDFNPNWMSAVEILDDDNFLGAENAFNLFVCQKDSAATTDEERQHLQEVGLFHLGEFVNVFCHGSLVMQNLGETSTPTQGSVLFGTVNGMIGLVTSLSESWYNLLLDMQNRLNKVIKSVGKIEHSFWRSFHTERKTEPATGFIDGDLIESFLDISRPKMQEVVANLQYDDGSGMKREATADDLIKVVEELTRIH

SMILES	IC50 [1]	IC50 [2]	IC50 [3]	Degradation of substrate protein ALK (substrate protein remaining %) [4]	IC50 [5]
CCc1cc2c(cc1N1CCC(N3CCN(Cc4ccc(N5CCC(=O)NC5=O)nc4)CC3)CC1)C(C)(C)c1[nH]c3cc(C#N)ccc3c1C2=O [GT-07312, 8-(4-(4-((6-(2,4-dioxotetrahydropyrimidin-1(2H)-yl)pyridin-3-yl)methyl)piperazin-1-yl)piperidin-1-yl)-9-ethyl-6,6-dimethyl-11-oxo-6,11-dihydro-5H-benzo[b]carbazole-3-carbonitrile]	50 to 100 nM	500 to 1000 nM	1 to 10 nM	A (A is defined as 0% ≤ substrate protein remaining % ≤ 80%)	–
CCc1cc2c(cc1N1CCN(Cc3ccc(N4CCC(=O)NC4=O)cc3)CC1)C(C)(C)c1[nH]c3cc(C#N)ccc3c1C2=O [GT-07324, 8-(4-(4-(2,4-dioxotetrahydropyrimidin-1(2H)-yl)benzyl)piperazin-1-yl)-9-ethyl-6,6-dimethyl-11-oxo-6,11-dihydro-5H-benzo[b]carbazole-3-carbonitrile]	100 to 500 nM	500 to 1000 nM	10 to 50 nM	A (A is defined as 0% ≤ substrate protein remaining % ≤ 80%)	–
CCc1cc2c(cc1N1CCN(Cc3ccc(N4CCC(=O)NC4=O)nc3)CC1)C(C)(C)c1[nH]c3cc(C#N)ccc3c1C2=O [GT-07327, 8-(4-((6-(2,4-dioxotetrahydropyrimidin-1(2H)-yl)pyridin-3-yl)methyl)piperazin-1-yl)-9-ethyl-6,6-dimethyl-11-oxo-6,11-dihydro-5H-benzo[b]carbazole-3-carbonitrile]	100 to 500 nM	500 to 1000 nM	1 to 10 nM	A (A is defined as 0% ≤ substrate protein remaining % ≤ 80%)	–
COc1cc(N2CCN(Cc3ccc(N4CCC(=O)NC4=O)cc3)CC2)ccc1Nc1ncc(Cl)c(Nc2ccccc2P(C)(C)=O)n1 [GT-07345, 1-(4-((4-(4-((5-chloro-4-((2-(dimethylphosphoryl)phenyl)amino)pyrimidin-2-yl)amino)-3-methoxyphenyl)piperazin-1-yl)methyl)phenyl)dihydropyr imidine-2,4(1H,3H)-dione]	100 to 500 nM	500 to 1000 nM	10 to 50 nM	A (A is defined as 0% ≤ substrate protein remaining % ≤ 80%)	500 to 1000 nM
COc1cc(N2CCN(Cc3ccc(N4CCC(=O)NC4=O)c(F)c3)CC2)ccc1Nc1ncc(Cl)c(Nc2ccccc2P(C)(C)=O)n1 [GT-07346, 1-(4-((4-(4-((5-chloro-4-((2-(dimethylphosphoryl)phenyl)amino)pyrimidin-2-yl)amino)-3-methoxyphenyl)piperazin-1-yl)methyl)-2-fluorophenyl)dihydropyrimidine-2,4(1H,3H)-dione]	100 to 500 nM	500 to 1000 nM	10 to 50 nM	A (A is defined as 0% ≤ substrate protein remaining % ≤ 80%)	100 to 500 nM
COc1cc(N2CCN(Cc3cccc(N4CCC(=O)NC4=O)c3)CC2)ccc1Nc1ncc(Cl)c(Nc2ccccc2P(C)(C)=O)n1 [GT-07348, 1-(3-((4-(4-((5-chloro-4-((2-(dimethylphosphoryl)phenyl)amino)pyrimidin-2-yl)amino)-3-methoxyphenyl)piperazin-1-yl)methyl)phenyl)dihydropyr imidine-2,4(1H,3H)-dione]	100 to 500 nM	–	10 to 50 nM	A (A is defined as 0% ≤ substrate protein remaining % ≤ 80%)	500 to 1000 nM
COc1cc(N2CCN(Cc3ccc(N4CCC(=O)NC4=O)cn3)CC2)ccc1Nc1ncc(Cl)c(Nc2ccccc2P(C)(C)=O)n1 [GT-07349, 1-(6-((4-(4-((5-chloro-4-((2-(dimethylphosphoryl)phenyl)amino)pyrimidin-2-yl)amino)-3-methoxyphenyl)piperazin-1-yl)methyl)pyridin-3-yl)dihydropyrimidine-2,4(1H,3H)-dione]	500 to 1000 nM	–	50 to 100 nM	A (A is defined as 0% ≤ substrate protein remaining % ≤ 80%)	500 to 1000 nM
COc1cc(N2CCN(Cc3cccc(NC4CCC(=O)NC4=O)c3)CC2)ccc1Nc1ncc(Cl)c(Nc2ccccc2P(C)(C)=O)n1 (stereo not drawn) [GT-07351, 3-((3-((4-(4-((5-chloro-4-((2-(dimethylphosphoryl)phenyl)amino)pyrimidin-2-yl)amino)-3-methoxyphenyl)piperazin-1-yl)methyl)phenyl)amino)pip eridine-2,6-dione]	100 to 500 nM	500 to 1000 nM	10 to 50 nM	A (A is defined as 0% ≤ substrate protein remaining % ≤ 80%)	500 to 1000 nM
Cc1cc(Nc2ncc(Cl)c(Nc3ccccc3S(=O)(=O)C(C)C)n2)c(OC(C)C)cc1C1CCN(Cc2ccc(N3CCC(=O)NC3=O)cc2)CC1 [GT-07592, 1-(4-((4-(4-((5-chloro-4-((2-(isopropylsulfonyl)phenyl)amino)pyrimidin-2-yl)amino)-5-isopropoxy-2-methylphenyl)piperidin-1-yl)methyl)phenyl)dihydropyr imidine-2,4(1H,3H)-dione]	100 to 500 nM	500 to 1000 nM	10 to 50 nM	A (A is defined as 0% ≤ substrate protein remaining % ≤ 80%)	–
Cc1cc(Nc2ncc(Cl)c(Nc3ccccc3S(=O)(=O)C(C)C)n2)c(OC(C)C)cc1C1CCN(Cc2ccnc(N3CCC(=O)NC3=O)c2)CC1 [GT-07596, 1-(4-((4-(4-((5-chloro-4-((2-(isopropylsulfonyl)phenyl)amino)pyrimidin-2-yl)amino)-5-isopropoxy-2-methylphenyl)piperidin-1-yl)methyl)pyridin-2-yl)dihydropyrimidine-2,4(1H,3H)-dione]	100 to 500 nM	100 to 500 nM	10 to 50 nM	A (A is defined as 0% ≤ substrate protein remaining % ≤ 80%)	–
COc1cc(N2CCC(N3CCN(Cc4cc(C5CCC(=O)NC5=O)cnc4F)CC3)CC2)ccc1Nc1ncc(Cl)c(Nc2ccccc2P(C)(C)=O)n1 (stereo not drawn) [GT-07611, 3-(5-((4-(1-(4-((5-chloro-4-((2-(dimethylphosphoryl)phenyl)amino)pyrimidin-2-yl)amino)-3-methoxyphenyl)piperidin-4-yl)piperazin-1-yl)methyl)-6-fluoropyridin-3-yl)piperidine-2,6-dione]	10 to 50 nM	–	1 to 10 nM	A (A is defined as 0% ≤ substrate protein remaining % ≤ 80%)	500 to 1000 nM
COc1cc(N2CCC(N(C)Cc3ccnc(C4CCC(=O)NC4=O)c3)CC2)ccc1Nc1ncc(Cl)c(Nc2ccccc2P(C)(C)=O)n1 (stereo not drawn) [GT-07697, 3-(4-(((1-(4-((5-chloro-4-((2-(dimethylphosphoryl)phenyl)amino)pyrimidin-2-yl)amino)-3-methoxyphenyl)piperidin-4-yl)(methyl)amino)methyl)pyridin-2-yl)piperidine-2,6-dione]	100 to 500 nM	500 to 1000 nM	10 to 50 nM	A (A is defined as 0% ≤ substrate protein remaining % ≤ 80%)	–
